Here are results for two compounds from patent publication US20140066465A1, “CANCER TREATMENT USING TYROSINE KINASE AND NF-kB INHIBITORS” (The Cleveland Clinic Foundation, priority 2012, published 2014).

For data set [1] the following is noted: in vivo; cited from earlier work.
A further data set concerns the target CYP3A4 (Homo sapiens, UniProt P08684). Conditions: cited from earlier work.
Another data set concerns sensitive cell lines. As to the kind of experiment: MTT cell survival assay, single drug. It is filed as cell-based. Conditions: single drug treatment. Here is the method:
(§1) The cells were plated in 96-well plates at 2500-3000 cells per well, and allowed to attach overnight, with 6 replicates being used for each dose. First, the inventors detected the IC50 with single drug treatment for each cell line.
In general terms: Tetrazolium assays rely on reduction of a dye to a coloured formazan, in cell work by metabolically active cells.

Data set [2] relates to erlotinib-resistant NSCLC cell lines (A549, H1975, and H1993). As to the kind of experiment: cells. Here is the method: Erlotinib-resistance NSCLC cell lines A549, H1975, and H1993 were used.
as §1

In data set [3] the test system is xenograft tumors originating from human renal cell carcinoma. As to conditions: mice; cited from earlier work.
Data set [4] relates to NF-κB. As to conditions: A549 or H1975 reporter cells; pretreated, then interleukin-1 for 6 h. Here is the method:
The reporter cells were then seeded in 96-well plates at 1-2×10^3 per well, allowed to attach overnight, and then treated with drugs and/or IL-1. Cells were then harvested in reporter lysis buffer (Promega) and assayed for luciferase activity using the luciferase assay system (Promega).

For another data set, the system named is H1975 cells. As to the kind of experiment: PARP cleavage Western blot. Conditions: 5 μM quinacrine, time course. Format: cell-based. (Immunoblotting shows a protein as a band on a membrane.)
In data set [5] the test system is NF-κB. Here is the method:
For the NF-κB luciferase assay, A549 or H1975 cells were infected with the κB-luciferse construct PLANFκBluc and stably selected with puromycin or hygromycin. The reporter cells were then seeded in 96-well plates at 1-2×10^3 per well, allowed to attach overnight, and then treated with drugs and/or interleukin-1 for four hours. Cells were then harvested in reporter lysis buffer (Promega) and assayed for luciferase activity using the luciferase assay system (Promega).

A word on the IC50: it is the concentration that gives 50% inhibition. Read a low IC50 as higher potency.

Chain of CYP3A4 (P08684 whole entry): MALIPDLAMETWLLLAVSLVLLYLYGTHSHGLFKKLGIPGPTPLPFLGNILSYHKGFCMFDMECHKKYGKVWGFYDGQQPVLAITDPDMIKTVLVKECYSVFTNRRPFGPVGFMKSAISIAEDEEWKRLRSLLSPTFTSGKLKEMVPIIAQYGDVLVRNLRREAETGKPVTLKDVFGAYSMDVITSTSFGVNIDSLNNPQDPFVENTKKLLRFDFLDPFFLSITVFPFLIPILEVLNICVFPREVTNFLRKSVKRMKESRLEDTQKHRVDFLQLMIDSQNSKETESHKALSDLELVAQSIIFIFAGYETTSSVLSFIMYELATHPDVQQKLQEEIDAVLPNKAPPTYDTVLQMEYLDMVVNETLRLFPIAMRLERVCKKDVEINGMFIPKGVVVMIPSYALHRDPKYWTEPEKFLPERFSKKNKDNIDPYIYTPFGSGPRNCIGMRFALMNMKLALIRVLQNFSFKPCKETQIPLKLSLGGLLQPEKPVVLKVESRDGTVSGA

For `C#Cc1cccc(Nc2ncnc3cc(OCCOC)c(OCCOC)cc23)c1` [erlotinib], the half life entry in data set [1] is on record as “about 36 hours”. Further, on CYP3A4, the route of clearance result was “cleared predominantly by CYP3A4 methabolism”. Further, the 50% inhibitory concentration (IC50) with sensitive cell lines was about 0.02 µM; in data set [2], 10 to 20 µM.
As to `CCN(CC)CCCC(C)Nc1c2ccc(Cl)cc2nc2ccc(OC)cc12` (stereo not shown) [quinacrine], in data set [3], the anti-tumor effect entry is “anti-tumor effect”. Besides, the “IL-1-induced NF-κB-dependent luciferase reporter activity” value in the data set on NF-κB [4] was “suppresses interleukin-1 (IL-1)-induced NF-κB-dependent luciferase reporting activity”. Besides, in the data set with H1975 cells, the “Apoptosis by PARP cleavage” value was “time-dependent increase of PARP cleavage”. In addition, in data set [2], the 50% inhibitory concentration (IC50) fell in the range of 1 to 2 µM. The “NF-κB-dependent luciferase reporter activity” value in the data set with NF-κB [5] (A549 or H1975 reporter cells, 4 h treatment, relative to untreated control) is “suppresses NF-κB-dependent luciferase reporter activity”. Besides, in the data set on NF-κB [5] (general statement of the inventors), the NF-κB activity result is reported as “profoundly suppresses NF-κB activity”.
